# Laboratory results published in patent publication US20260028404A1 (UNIVERSITY OF KANSAS, priority 2022, published 2026).
# How the values were obtained:
# [1] = in vivo; cited from earlier work
# Ki-67 = Ki-67 IHC of pre- and post-treatment tumor specimens; format: in vivo, human; conditions: for Ki67 results, biopsy: before treatment
# Protocol: Ki-67 and Caspase-3 levels: To potentially detect an early signal for anti-tumoral efficacy of Copaxone® treatment, changes in the level of Ki-67 and caspase-3 before and after treatment with Copaxone® were evaluated by IHC. FFPE tumor sections from pre-and post-treatment specimens were mounted on the same slide and stained using Caspase 3 (Biocare, Pacheco, CA) and Ki-67 (MIB-1) (Dako, Carpinteria, CA).
# CT26wt tumors = test: Example 6 syngeneic CT26wt model with anti-mPD-L1; format: in vivo, BALB/c mice; conditions: of 8 animals on Day 0
# Protocol: FIG. 14. […] Female BALB/c mice were implanted with CT26wt tumor cells into the mammary fat pad on Day 0 and were treated as depicted in the figure legends. […] The number of animals alive on Days 0 (implantation) and 45 (study termination), are shown for each group in parenthesis.
# Each experimental group contained eight female BALB/c mice after randomization. On Day 0, 0.5×10^6 CT26wt murine colon adenocarcinoma tumor cells in 100 μl PBS were implanted into the left mammary fat pad of each mouse.
# After animals had been randomized on Day 6, treatments were initiated on the same day. […] All groups were evaluated versus the Control, which were animals that had been treated with 25 μl/mouse Vehicle Control (4% mannitol) i.t. in combination with 10 mg/kg Isotype Control i.p.
# During the course of the study, individual animals were either euthanized prior to study end without performing a necropsy, after they had reached humane endpoint, or were found dead. On Day 45, the study was terminated and all remaining animals were euthanized without performing a necropsy.
# [2] = test system: differentially expressed genes; test: CT26 tumor RNA sequencing; format: in vivo, BALB/c mice; conditions: intratumoral GA treatment
# Protocol: RNA isolation: RNA was isolated from the tumor as previously described. 22.83Briefly, tumor pieces were stored in RNAlater solution at room temperature for at least one day and then at 4° C. until RNA isolation. Tumor pieces were removed from RNAlater solution and homogenized in 10 mL TRIzol reagent (38% phenol, 0.8 M guanidine thiocyanate, 0.4 M ammonium thiocyanate, 0.1 M sodium acetate, 5% glycerol). Homogenate was divided into 1 mL, 100 μl BCP (Molecular Research Center #BP 151, Cincinnati, OH) was added, shaken vigorously 15 seconds and centrifuged 12,000×g, 10 minutes, 4° C. […] RNA was quantified by Qubit™ using the RNA High Sensitivity Assay Kit (Invitrogen™ #Q32852, Thermo Fisher Scientific Corporation, Eugene, OR) and RNA quality was analyzed using the Agilent 2200 TapeStation (Waldbronn, Germany).
# RNA sequencing: The mRNA library preparation was performed with the NEBNext® Stranded mRNA library kit (New England Biolabs, Inc. #E7760, Ipswich, MA), tagged with a unique dual index sequence, and qPCR quantification of the library pool was performed before sequencing. Sequencing was performed on an Illumina NextSeq2000 P3 with single read 75 bp read lengths (KU Genome Sequencing Core). The reads were aligned with Mus musculus UCSC mm9 reference genome using RNA-Seq Alignment workflow (2.0.2, Illumina, San Diego, CA). […]
# [3] = in vitro; cited from earlier work
substance,measurement,setting,value
Glatiramer acetate [GA],localization after injection,[1],primarily localized at the site of injection
same,"Ki67 results, treated","Ki-67; patient BCCa-Left Nasal Ala, after 2 Copaxone injections",60%
same,"Ki67 results, biopsy",Ki-67; patient BCCa-Left Nasal Ala,65%
same,"Ki67 results, treated","Ki-67; patient BCCa-Right Flank, after 3 Copaxone injections",44%
same,"Ki67 results, biopsy",Ki-67; patient BCCa-Right Flank,62%
same,"Ki67 results, treated","Ki-67; patient BCCa-Right Post. Neck, after 2 Copaxone injections",45%
same,"Ki67 results, biopsy",Ki-67; patient BCCa-Right Post. Neck,70%
same,"Ki67 results, treated","Ki-67; patient SCCa-Right Cheek, after 1 Copaxone injection",45%
same,"Ki67 results, biopsy",Ki-67; patient SCCa-Right Cheek,55%
same,"Ki67, marker of cell proliferation (overall)","Ki-67; patients, biopsy vs treated tumor",Consistent reductions in Ki67
same,number of animals alive on Day 45 (study termination),CT26wt tumors,0
same,gene expression in the tumors,[2],little discernable effect on gene expression
same,aggregation in the presence of hyaluronic acid (HA),[3],form aggregates and precipitate in the presence of HA
